Measurements reported in PubChem BioAssay (NCI).
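Compound exposure: 48 hours, 5 concentrations, 96-well plates. At the TGI there is no net growth.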

Tests used:
Experiment in all cases: inhibition of tumour cell growth, NCI panel, 48 h
[1] = tested on: SF-295 CNS
[2] = tested on: KM12 colon
[3] = tested on: RPMI-8226 leukemia
[4] = tested on: SNB-19 CNS
[5] = tested on: A549 NSCLC
[6] = tested on: SF-268 CNS
[7] = tested on: 786-0 renal
[8] = tested on: NCI-H23 lung
[9] = tested on: K-562 leukemia
[10] = tested on: DU-145 prostate
[11] = tested on: BT-549 breast
[12] = tested on: T-47D breast
[13] = tested on: UACC-62 melanoma
[14] = tested on: UACC-257 melanoma
[15] = tested on: OVCAR-4 ovarian
[16] = tested on: SR leukemia
[17] = tested on: HL-60(TB) leukemia

| Structure (SMILES) | TGI [1] [µM] | TGI [2] [µM] | TGI [3] [µM] | TGI [4] [µM] | TGI [5] [µM] | TGI [6] [µM] | TGI [7] [µM] | TGI [8] [µM] | TGI [9] [µM] | TGI [10] [µM] | TGI [11] [µM] | TGI [12] [µM] | TGI [13] [µM] | TGI [14] [µM] | TGI [15] [µM] | TGI [16] [µM] | TGI [17] [µM] |
| --- | --- | --- | --- | --- | --- | --- | --- | --- | --- | --- | --- | --- | --- | --- | --- | --- | --- |
| CC1N=C(c2ccccc2)OC1=O (configuration not stated) | > 100 | > 100 | > 100 | > 100 | > 100 | > 100 | > 100 | > 100 | > 100 | > 100 | > 100 | > 100 | > 100 | > 100 | > 100 |  |  |
| C[C@]12CC[C@H](O)CC1=CC[C@@H]1[C@@H]2CC[C@]2(C)NC(=O)/C(=C\c3ccccc3)C[C@@H]12 | 33.2 | 30.3 | 56 | 27.8 | 33.4 | 30.7 | 52 | 40.7 | > 100 | 33.5 | 32.7 | 47 | 38.6 | 48.6 | 60.8 | > 100 |  |
| CN1N=C(c2ccccc2)c2cc(Cl)ccc2N=C1N/N=C/c1ccc(N(C)C)cc1 | > 100 | > 100 | > 100 | > 100 | > 100 | > 100 | > 100 | > 100 | > 100 | > 100 | > 100 | > 100 | > 100 | > 100 | > 100 | > 100 | > 100 |
| Oc1cccc2ccc(Br)nc12 | > 100 | > 100 | > 100 | > 100 | > 100 | > 100 | > 100 | > 100 | > 100 | > 100 | > 100 | > 100 | > 100 | > 100 | > 100 | > 100 | > 100 |
| Cc1ccc(S(=O)(=O)NNC(=O)Nc2ccc([N+](=O)[O-])cc2)cc1 | > 100 | > 100 | 78.5 | > 100 | > 100 | > 100 | 64.6 | > 100 | > 100 | > 100 | > 100 | 28.9 | 98 | > 100 | 89.4 | > 100 | > 100 |
| Cc1ccc(O)c(C2=NNC(c3cccc(Cl)c3)C2)c1 (configuration not stated) | > 100 | > 100 | 88.3 | 55.8 | > 100 | > 100 | > 100 | > 100 | > 100 | > 100 | > 100 | > 100 | > 100 | > 100 | 94 | > 100 | > 100 |
| COC(=O)[C@@H]1[C@H]2CC[C@]3(C)[C@@H](OC(C)=O)CC[C@H]3[C@@H]2CC[C@H]1C(C)=O | > 100 | > 100 | > 100 | > 100 | > 100 | > 100 | > 100 | > 100 | > 100 | > 100 | > 100 | > 100 | > 100 | > 100 |  |  | > 100 |
| N#Cc1c(N)c2c(c(-c3ccccc3)c1-c1ccccc1)C(=O)N(O)C2=O | > 100 | 83.5 | > 100 | > 100 | > 100 | > 100 | > 100 |  | > 100 | > 100 | > 100 | 73.9 | > 100 | > 100 | > 100 | > 100 | > 100 |
| COc1ccc(NC(/C(C(=O)C(=O)/C=C(\O)c2ccccc2)=C(\O)c2ccccc2)c2ccc(OC)cc2)cc1 (configuration not stated) | > 100 | > 100 | 69.1 | > 100 | > 100 | > 100 | > 100 | > 100 | > 100 | > 100 | > 100 | 81.4 | > 100 | > 100 | > 100 | > 100 | 75.3 |
| COC1(OC)C2C=CC1C([C@](C)(N)CO)C2 (some centres not stated) | > 100 | > 100 |  | > 100 | > 100 | > 100 | > 100 | > 100 | > 100 | > 100 | > 100 | > 100 | > 100 | > 100 | > 100 | > 100 | > 100 |
| O=C(NCCN(CCNC(=O)c1cccc(=O)n1O)CCNC(=O)c1cccc(=O)n1O)c1cccc(=O)n1O | > 100 | > 100 | > 100 | > 100 | > 100 | > 100 |  | > 100 | > 100 | > 100 | > 100 | > 100 | > 100 | > 100 | > 100 | > 100 | > 100 |
| Cc1cc(S(=O)(=O)NC2=NCC(C)(C)CN2)c(S)cc1Cl |  | > 100 |  | > 100 | 49.7 | > 100 | > 100 |  | 80.5 | > 100 | > 100 | > 100 | 61.9 | > 100 | 64.5 | > 100 | 62.1 |
| CC1(C)CCC[C@@]2(C)C1CC[C@@]1(CO1)[C@@H]2/C=C\C(C=O)CC=O (some centres not stated) | > 100 | > 100 | > 28.1 | > 100 | > 100 | > 100 | > 100 | > 100 | > 69.5 | > 100 | > 100 | > 100 | > 100 | > 100 | > 100 | 99.2 | > 74.4 |
| COC(=O)c1cc2c(cc1C(=O)OC)[C@@]1(C)CCCC(C)(C)C1CC2 (some centres not stated) | 37 | 30.6 | 34.3 | 53.7 | 55.9 | 31.2 | 36.7 | > 100 | 76.1 | 33.7 | 85.9 | 9.58 | 32.5 | 62.8 | > 100 | 57.7 | 31.9 |
